Data from US4288596A, “Furoindoles” (priority 1978, dated 1981).
Where a name gives a salt, the structure may show the parent alone.

Legend:
[1] = Analgesic effect by acetic acid writhing method; type: in vivo, mice of ddY strain; settings: Mus musculus, 20 min; oral, mice; 0.7% acetic acid i.p. 20 min after dosing; read-out: Analgesic action (ED50), Writhing method
Procedure: Test 1: ANALGESIC EFFECT BY ACETIC ACID WRITHING METHOD (Koster et al., Fed Proc., 18, 412 (1959))
Ten mice of ddY strain weighing 18-24 g were used in testing each compound. Twenty minutes after oral administration of test compounds, 0.1 ml/10 g of 0.7% acetic acid solution was injected intraperitoneally and the number of writhing syndromes was recorded for 10 minutes from 10 minutes after acetic acid injection. ED50 values were calculated from inhibition percent for each test compound.

[2] = Analgesic effect by tail pressure method; type: in vivo, mice of ddY strain; settings: Mus musculus; oral, mice; pain threshold at 30, 60, 90 and 120 min; read-out: Analgesic action (ED50), Tail pressure method
Procedure: Test 2: ANALGESIC EFFECT BY TAIL PRESSURE METHOD (Keijiro Takagi et al., Yakugaku Zasshi, 78, 553 ([…])) Ten mice of ddY strain weighing 18-24 g and showing pain threshold of 50-80 mmHg were used in testing each compound. The pain threshold was measured at 30, 60, 90 and 120 minutes after oral administration of the test compounds and positive analgesic response was recorded when the pain threshold was two or more times higher than pre-administration. ED50 values were calculated from the numbers of positive mice.

[3] = Analgesic effect by D'Amour-Smith's method; type: in vivo, mice of ddY strain; settings: Mus musculus; oral, mice; reaction time at 30, 60, 90 and 120 min; read-out: Analgesic action (ED50), D'Amour-Smith's method
Procedure: Test 3: ANALGESIC EFFECT BY D'AMOUR-[…] METHOD (D'Amour et al., J. Pharmacol. Exp. Ther., 72, 74 (1941)) Ten mice of ddY strain weighing 18-24 g and showing reaction times of 2-5 seconds were used in testing each compound. The reaction time was measured at 30, 60, 90 and 120 minutes after oral administration of the test compounds and positive analgesic response was recorded when the reaction time was two or more times longer than pre-administration. ED50 values were calculated from the number of positive mice.

[4] = Anti-inflammatory effect by carrageenin edema method; type: in vivo, male rats of Wistar strain; settings: rats; for Ratio of antiedematous action (100 mg/kg test compound/100 mg/kg phenylbutazone): ratio of inhibition % at 100 mg/kg oral, values marked * in the anti-inflammatory column; for ED50: Rattus norvegicus, oral, carrageenin edema, foot volume at 3 hours, read-out: Anti-inflammatory action (ED50)
Procedure: Test 4: ANTI-INFLAMMATORY EFFECT BY CARRAGEENIN EDEMA METHOD (Winter et al., Proc. Soc. Exp. Biol. Med., 111, 544 (1962)) Six male rats of Wistar strain weighing 110-120 g were used in testing each compound. […] ED50 values were calculated from the inhibition percent of foot volume, and the ratios of anti-edematous action of test compounds were calculated by the formula; (the inhibition % of 100 mg/kg test compounds)/(the inhibition % of 100 mg/kg phenylbutazone).

in vivo = test: in vivo; parameters: species or system male rats of Wistar strain; settings: rat, po
Procedure: Test 5: ULCERATION IN STOMACH (Brodie et al., Gastroenterology, 56, 206 (1969))
Ten male rats of Wistar strain weighing 190-200 g were used for each dose. Rats were deprived of food for 24 hours before experiments. Test compounds were administered orally and 18 hours later the rats were sacrificed, thereafter the area of each gastric lesion was measured and summed under dissecting microscope (×9). UD50 values were calculated from the gastric lesion area.

SMILES | ED50 [1] [mg/kg] | ED50 [2] [mg/kg] | ED50 [3] [mg/kg] | Ratio of antiedematous action (100 mg/kg test compound/100 mg/kg phenylbutazone) [4] | TD50 at 18 h (in vivo) [mg/kg] | ED50 [4] [mg/kg]
CCn1c2cc(Cl)ccc2c2oc(C(=O)NCCCN3CCCCC3)cc21 [Compound No. 7, 6-chloro-4-ethyl-furo[3,2-b]indole-2-(N-piperidinopropyl)carboxamide] | 56.4 | 41.8 | 31 | 1.45 |  | 
Cn1c2ccccc2c2oc(C(=O)NCCCN3CCCCC3)cc21 [Compound No. 2, 4-methyl-furo[3,2-b]indole-2-(N-piperidinopropyl)carboxamide] | 36 | 68 | 115 | 0.82 |  | 
CC(C)n1c2cc(C(F)(F)F)ccc2c2oc(C(=O)NCCCN3CCCCC3)cc21 [Compound No. 12, 4-isopropyl-6-trifluoromethyl-furo[3,2-b]indole-2-(N-piperidinopropyl)carbonxamide] | 68.3 | 93 | 300 | 2.19 | 351 | 
CCn1c2cc(C(F)(F)F)ccc2c2oc(C(=O)NCCCN3CCCCC3)cc21 [Compound No. 11, 4-ethyl-6-trifluoromethyl-furo[3,2-b]indole-2-(N-piperidinopropyl)carboxamide] | 30 | 41 | 50 | 1.29 |  | 
Cn1c2cc(C(F)(F)F)ccc2c2oc(C(=O)NCCCN3CCCCC3)cc21 [Compound No. 10, 4-methyl-6-trifluoromethyl-furo[3,2-b]indole-2-(N-piperidinopropyl)carboxamide] | 32.5 | 38 | 49 |  | > 200 | 45.4
Cn1c2cc(Cl)ccc2c2oc(C(=O)NCCCN3CCCCC3)cc21 [Compound No. 6, 6-chloro-4-methyl-furo[3,2-b]indole-2-(N-piperidinopropyl)carboxamide] | 29.5 | 50 | 59 | 1.29 |  | 
O=C(NCCCN1CCCCC1)c1cc2[nH]c3cc(Cl)ccc3c2o1 [Compound No. 5, 6-chloro-furo[3,2-b]indole-2-(N-piperidinopropyl)carboxamide] | 64.2 | 80 | 100 | 0.73 | 400 | 
CCCn1c2cc(C)ccc2c2oc(C(=O)NCCCN3CCCCC3)cc21 [Compound No. 15, 6-methyl-4-n-propyl-furo[3,2-b]indole-2-(N-piperidinopropyl)carboxamide] | 91 | 79.2 | 87.6 | 0.78 |  | 
CCCn1c2cc(OC)ccc2c2oc(C(=O)NCCCN3CCCCC3)cc21 [Compound No. 14, 6-methoxy-4-n-propyl-furo[3,2-b]-indole-2-(N-piperidinopropyl)carboxamide] | 81.2 | 84.6 | > 100 | 0.92 |  | 
CC(C)Cc1ccc(C(C)C(=O)O)cc1 (centres unmarked) [Ibuprofen, reference compound] | 195 | 324 | > 300 |  | 278 | 66.5
CCCCC1C(=O)N(c2ccccc2)N(c2ccccc2)C1=O [Phenylbutazone, reference compound] | 123 | > 300 | > 300 |  | 145 | 110
Cc1c(N(C)C)c(=O)n(-c2ccccc2)n1C [Aminopyrin, reference compound] | 38 | 98 | 225 |  |  | 
CCn1c2cc(F)ccc2c2oc(C(=O)NCCCN3CCCCC3)cc21 [Compound No. 13, 4-ethyl-6-fluoro-furo[3,2-b]indole-2-(N-piperidinopropyl)carboxamide] | 87.5 | 90.8 | 79.9 | 0.84 |  | 
CC(C)n1c2cc(Cl)ccc2c2oc(C(=O)NCCCN3CCCCC3)cc21 [Compound No. 8, 6-chloro-4-isopropyl-furo[3,2-b]indole-2-(N-piperidinopropyl)carboxamide] | 68.4 | 87 | 100 | 0.56 |  | 
O=C(Cn1c(=O)sc2ccc(Cl)cc21)N1CCN(CCO)CC1 [Tiaramide HCl, reference compound] | 66 | 110 | 93 |  | > 200 | 84.3
